Source: US5922879A, “N-aminoalkyl-2-anthraquinonecarboxamides: new dopamine receptor subtype specific ligands” (Neurogen Corporation, priority 1997, dated 1999)
Where a name gives a salt, the structure may show the parent alone.

Assays:
D2 receptors = assay: D2 receptor binding (displacement of 0.5 nM 3H-YM 09151-2); design: species or system African Green monkey; details: pellets of COS cells with recombinant D2, nonspecific binding with 1 mM spiperone
Protocol: (§1) Assay for D2 and D3 Receptor Binding Activity
(§2) Pellets of COS cells containing recombinantly produced D2 or D3 receptors from African Green monkey were used for the assays. The sample is homogenized in 100 volumes (w/vol) of 0.05 M Tris HCl buffer at 4° C. and pH 7.4. The sample is then centrifuged at 30,000 ×g and resuspended and rehomogenized. The sample is then centrifuged as described and the final tissue sample is frozen until use. The tissue is resuspended 1:20 (wt/vol) in 0.05 M Tris HCl buffer containing 100 mM NaCl.
The binding characteristics of representative compounds of the invention for D2 and D3 receptor subtypes are shown in Table 2 for rat striatal homogenates.

D3 receptors = molecular target: T1, D3 receptors (Chlorocebus aethiops, UniProt P52703); assay: D3 receptor binding (displacement of 0.5 nM 3H-YM 09151-2); design: species or system African Green monkey; details: pellets of COS cells with recombinant D3, nonspecific binding with 1 mM spiperone
T1 construct: expressed in transfected cells; host or cells: COS cells
T1 sequence (P52703 whole entry): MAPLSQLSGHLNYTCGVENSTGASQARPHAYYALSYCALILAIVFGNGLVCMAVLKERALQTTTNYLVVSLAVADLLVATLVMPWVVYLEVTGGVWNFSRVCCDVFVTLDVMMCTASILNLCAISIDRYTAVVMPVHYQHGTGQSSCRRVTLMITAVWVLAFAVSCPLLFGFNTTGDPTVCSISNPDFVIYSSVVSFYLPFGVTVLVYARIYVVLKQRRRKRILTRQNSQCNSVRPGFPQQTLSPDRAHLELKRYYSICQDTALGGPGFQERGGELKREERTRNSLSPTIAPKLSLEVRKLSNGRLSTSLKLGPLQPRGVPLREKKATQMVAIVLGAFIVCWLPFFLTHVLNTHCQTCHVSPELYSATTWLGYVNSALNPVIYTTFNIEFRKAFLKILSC
Protocol: as §1, §2
Incubations are carried out at 48° C. and contain 0.4 ml of tissue sample, 0.5 nM ^3 H-YM 09151-2 and the compound of interest in a total incubation of 1.0 ml. Nonspecific binding is defined as that binding found in the presence of […] spiperone; without further additions, nonspecific binding is less than 20% of total binding. The binding characteristics of representative compounds of the invention for D2 and D3 receptor subtypes are shown in Table 2 for rat striatal homogenates.

Molecule	Ki (D2 receptors) [nM]	Ki (D3 receptors) [nM]
O=C(NCCCCN1CCN(c2cccc(Cl)c2Cl)CC1)c1ccc2c(c1)C(=O)c1ccccc1C2=O [Compound 1, N-(1-{4-[4-(2,3-Dichlorophenyl)piperazin-1-yl]}butyl)-2anthraquinonecarboxamide hydrochloride]	154	4
Cc1c(Cl)cccc1N1CCN(CCCCNC(=O)c2ccc3c(c2)C(=O)c2ccccc2C3=O)CC1 [Compound 4, N-(1-{4-[4-(2-Methyl-3-chlorophenyl)piperazin-1-yl]}butyl)-2-anthraquinonecarboxamide hydrochloride]	61	2
N-(1-{4-[4(8-Quinolinyl)piperazin-1-yl]}butyl)-2-anthraquinonecarboxamide hydrochloride [Compound 6]	45	–
